Like-named read-outs stand apart in the source and are kept apart here.
How the values were obtained:
IKK2 = molecular target: T1, IKK2 (Homo sapiens, UniProt O14920); assay: IKKβ Resin Enzyme Assay (IKK2 resin); format: biochemical
T1 construct: made in house; host or cells: insect cells (baculovirus, pFastBac; SF9)
T1 sequence (O14920 1-756): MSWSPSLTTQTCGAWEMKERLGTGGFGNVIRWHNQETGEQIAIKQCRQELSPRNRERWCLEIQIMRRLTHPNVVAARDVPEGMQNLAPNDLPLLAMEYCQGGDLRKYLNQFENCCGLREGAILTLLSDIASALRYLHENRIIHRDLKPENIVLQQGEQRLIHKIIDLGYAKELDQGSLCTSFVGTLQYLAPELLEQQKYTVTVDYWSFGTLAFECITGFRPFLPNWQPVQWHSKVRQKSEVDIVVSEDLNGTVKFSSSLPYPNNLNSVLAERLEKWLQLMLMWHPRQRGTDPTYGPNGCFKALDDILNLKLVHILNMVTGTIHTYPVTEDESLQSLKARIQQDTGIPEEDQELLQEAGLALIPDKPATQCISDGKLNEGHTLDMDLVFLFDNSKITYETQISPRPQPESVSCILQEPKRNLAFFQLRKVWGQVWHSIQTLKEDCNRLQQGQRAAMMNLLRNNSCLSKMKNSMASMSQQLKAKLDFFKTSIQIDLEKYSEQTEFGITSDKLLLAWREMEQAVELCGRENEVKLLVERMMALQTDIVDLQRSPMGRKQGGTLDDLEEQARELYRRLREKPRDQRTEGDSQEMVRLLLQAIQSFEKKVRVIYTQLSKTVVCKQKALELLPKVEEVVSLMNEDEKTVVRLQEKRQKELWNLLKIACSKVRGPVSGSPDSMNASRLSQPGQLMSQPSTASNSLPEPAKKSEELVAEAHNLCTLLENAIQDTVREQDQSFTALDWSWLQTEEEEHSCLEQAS
Outline: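 Enzyme: human IKK2 with a C-terminal FLAG tag, baculovirus-expressed, purified as homodimer on anti-FLAG resin. It phosphorylates a biotinylated IκBα peptide with 1 μM ATP plus [γ-33P]ATP in 25 mM Hepes pH 7.6, Mg/Mn, for 30 min at 25° C. Incorporation is counted by scintillation after anion-exchange resin stop.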

[1] = Table 7, read-out: IKK2 Resin IC50
[2] = Table 5, read-out: IKK2 Resin Avg. IC50

SMILES | IC50 (IKK2; [1]) | melting point | IC50 (IKK2; [2]) | IC50 (IKK2; Table 4, read-out: IKK2 Resin IC50)
CN1CCN(c2cc(C(=O)Nc3ccc4c(c3)-c3c(c(C(N)=O)nn3-c3ccc(F)cc3)CC4)ccn2)CC1 [Example 251, 1-(4-fluorophenyl)-8-{[2-(4-methylpiperazin-1-yl)isonicotinoyl]amino}-4,5-dihydro-1H-benzo[g]indazole-3-carboxamide] | ≤ 1000 nM | 277 to 279 °C |  | 
CNc1ncccc1C(=O)Nc1ccc2c(c1)-c1c(c(C(N)=O)nn1-c1ccc3c(c1)OCO3)CC2 [Example 207, 1-(1,3-benzodioxol-5-yl)-8-({[2-(methylamino)pyridin-3-yl]carbonyl}amino)-4,5-dihydro-1H-benzo[g]indazole-3-carboxamide] |  | 273 to 275 °C | ≤ 1000 nM | 
NC(=O)c1nn(-c2ccc(F)cc2)c2c1CCc1ccc(NC(=O)c3cc(N4CCOCC4)ncc3Cl)cc1-2 [Example 249, 8-[(5-chloro-2-morpholin-4-ylisonicotinoyl)amino]-1-(4-fluorophenyl)-4,5-dihydro-1H-benzo[g]indazole-3-carboxamide] | ≤ 1000 nM | 309 to 313 °C |  | 
Cc1cc(Cl)ncc1C(=O)Nc1ccc2c(c1)-c1c(c(C(N)=O)nn1-c1ccc(F)cc1)CC2 [Example 246, 8-{[(6-chloro-4-methylpyridin-3-yl)carbonyl]amino}-1-(4-fluorophenyl)-4,5-dihydro-1H-benzo[g]indazole-3-carboxamide] | ≤ 1000 nM | 280 to 284 °C |  | 
NC(=O)c1nn(-c2ccc3c(c2)OCO3)c2c1CCc1ccc(NC(=O)c3cccnc3Cl)cc1-2 [Example 161, 1-(1,3-benzodioxol-5-yl)-8-{[(2-chloropyridin-3-yl)carbonyl]amino}-4,5-dihydro-1H-benzo[g]indazole-3-carboxamide] |  | 165 to 166 °C |  | ≤ 1000 nM
Cc1cc(N2CCOCC2)ncc1C(=O)Nc1ccc2c(c1)-c1c(c(C(N)=O)nn1-c1ccc(F)cc1)CC2 [Example 247, 1-(4-fluorophenyl)-8-{[(4-methyl-6-morpholin-4-ylpyridin-3-yl)carbonyl]amino}-4,5-dihydro-1H-benzo[g]indazole-3-carboxamide] | ≤ 1000 nM | 301 °C (dec.) |  | 
NC(=O)c1nn(-c2ccc3c(c2)OCO3)c2c1CCc1ccc(NC(=O)c3nc(N4CCOCC4)ccc3Cl)cc1-2 [Example 219, 1-(1,3-benzodioxol-5-yl)-8-{[(3-chloro-6-morpholin-4-ylpyridin-2-yl)carbonyl]amino}-4,5-dihydro-1H-benzo[g]indazole-3-carboxamide] |  | 260 to 262 °C (dec.) | ≤ 1000 nM | 
NC(=O)c1nn(-c2ccc3c(c2)OCO3)c2c1CCc1ccc(NC(=O)c3cccnc3NCCO)cc1-2 [Example 208, 1-(1,3-benzodioxol-5-yl)-8-[({2-[(2-hydroxyethyl)amino]pyridin-3-yl}carbonyl)amino]-4,5-dihydro-1H-benzo[g]indazole-3-carboxamide] |  | 250 to 253 °C | ≤ 1000 nM | 
NC(=O)c1nn(-c2ccc3c(c2)OCO3)c2c1CCc1ccc(NC(=O)c3cc(N4CCOCC4)ncc3Cl)cc1-2 [Example 212, 1-(1,3-benzodioxol-5-yl)-8-[(5-chloro-2-morpholin-4-ylisonicotinoyl)amino]-4,5-dihydro-1H-benzo[g]indazole-3-carboxamide] |  | 269 to 271 °C | ≤ 1000 nM | 
NC(=O)c1nn(-c2ccc(F)cc2)c2c1CCc1ccc(NC(=O)c3nc(N4CCOCC4)ccc3Cl)cc1-2 [Example 255, 8-{[(3-chloro-6-morpholin-4-ylpyridin-2-yl)carbonyl]amino}-1-(4-fluorophenyl)-4,5-dihydro-1H-benzo[g]indazole-3-carboxamide] | ≤ 1000 nM | 252 to 254 °C |  | 
NC(=O)c1nn(-c2ccc(F)cc2)c2c1CCc1ccc(NC(=O)c3cccnc3N3CCNCC3)cc1-2 [Example 245, 1-(4-fluorophenyl)-8-{[(2-piperazin-1-ylpyridin-3-yl)carbonyl]amino}-4,5-dihydro-1H-benzo[g]indazole-3-carboxamide] | ≤ 1000 nM | 156 to 157 °C |  | 
CNc1ccc(Cl)c(C(=O)Nc2ccc3c(c2)-c2c(c(C(N)=O)nn2-c2ccc4c(c2)OCO4)CC3)n1 [Example 220, 1-(1,3-benzodioxol-5-yl)-8-({[3-chloro-6-(methylamino)pyridin-2-yl]carbonyl}amino)-4,5-dihydro-1H-benzo[g]indazole-3-carboxamide] |  | 269 to 270 °C (dec.) | ≤ 1000 nM | 
